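All cell lines were grown in 96-well plates and treated with compound for 48 hours. Here, GI50 denotes the concentration required for 50% inhibition of growth. TGI: total growth inhibition.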
Legend:
Experiment in all cases: NCI-60 cell line screen, 48 h
[1] = tested on: SNB-19 CNS
[2] = tested on: CCRF-CEM leukemia
[3] = tested on: UACC-257 melanoma
[4] = tested on: TK-10 renal
[5] = tested on: HCT-15 colon
[6] = tested on: HOP-62 NSCLC
[7] = tested on: 786-0 renal
[8] = tested on: CAKI-1 renal
[9] = tested on: U251 CNS
[10] = tested on: SW-620 colon
[11] = tested on: OVCAR-3 ovarian
[12] = tested on: NCI-H226 lung
[13] = tested on: SF-539 CNS
[14] = tested on: HOP-92 NSCLC
[15] = tested on: IGROV1 ovarian
[16] = tested on: SK-MEL-28 melanoma
[17] = tested on: NCI/ADR-RES ovarian
[18] = tested on: HT29 colon
[19] = tested on: OVCAR-8 ovarian
[20] = tested on: HCC-2998 colon
[21] = tested on: A498 renal
[22] = tested on: KM12 colon
[23] = tested on: HCT-116 colon
[24] = tested on: K-562 leukemia
[25] = tested on: MDA-MB-231 breast
[26] = tested on: RPMI-8226 leukemia
[27] = tested on: SK-MEL-2 melanoma
[28] = tested on: SK-MEL-5 melanoma
[29] = tested on: HS 578T breast
[30] = tested on: SNB-75 CNS
[31] = tested on: A549 NSCLC
[32] = tested on: HL-60(TB) leukemia
[33] = tested on: RXF 393 renal
[34] = tested on: M14 melanoma
[35] = tested on: OVCAR-5 ovarian
[36] = tested on: SK-OV-3 ovarian
[37] = tested on: MOLT-4 leukemia
[38] = tested on: BT-549 breast
[39] = tested on: NCI-H23 lung
[40] = tested on: LOX IMVI melanoma
[41] = tested on: SR leukemia
[42] = tested on: DU-145 prostate
[43] = tested on: SF-295 CNS
[44] = tested on: NCI-H460 lung
[45] = tested on: OVCAR-4 ovarian
[46] = tested on: SF-268 CNS
[47] = tested on: MCF7 breast
[48] = tested on: ACHN renal
[49] = tested on: T-47D breast
[50] = tested on: EKVX NSCLC
[51] = tested on: SN12C renal
[52] = tested on: PC-3 prostate
[53] = tested on: NCI-H522 lung
[54] = tested on: UO-31 renal
[55] = tested on: MALME-3M melanoma
[56] = tested on: UACC-62 melanoma
[57] = tested on: COLO 205 colon
[58] = tested on: MDA-MB-435

## COc1ccc(-c2nn(C(=O)NCCN(C)C)cc2-c2ccncc2)cc1Cl
[1]
  GI50: 5.15 µM
  TGI: > 100 µM
[2]
  GI50: 7.47 µM
  TGI: > 100 µM
[3]
  GI50: 16.6 µM
  TGI: > 100 µM
[4]
  GI50: 1.86 µM
  TGI: 56.1 µM
[5]
  GI50: 3.93 µM
  TGI: > 100 µM
[6]
  GI50: 2.99 µM
  TGI: 20.9 µM
[7]
  GI50: 7.62 µM
  TGI: 51.5 µM
[8]
  GI50: 3.24 µM
  TGI: 24.4 µM
[9]
  GI50: 3.71 µM
  TGI: > 100 µM
[10]
  GI50: 3.35 µM
  TGI: > 100 µM
[11]
  GI50: 4.32 µM
  TGI: 39.1 µM
[12]
  GI50: 4.11 µM
  TGI: 63.7 µM
[13]
  GI50: 2.28 µM
  TGI: 13.1 µM
[14]
  GI50: 1.16 µM
  TGI: 56.3 µM
[15]
  GI50: 8.74 µM
  TGI: > 100 µM
[16]
  GI50: 4.01 µM
  TGI: 38.3 µM
[17]
  GI50: 3.1 µM
  TGI: > 100 µM
[18]
  GI50: 2.17 µM
  TGI: 12.6 µM
[19]
  GI50: 1.73 µM
  TGI: 35.9 µM
[20]
  GI50: 10.1 µM
  TGI: 46.4 µM
[21]
  GI50: 2.12 µM
  TGI: 5.95 µM
[22]
  GI50: 4.01 µM
  TGI: 43.5 µM
[23]
  GI50: 4.6 µM
  TGI: > 100 µM
[24]
  GI50: 5.66 µM
  TGI: > 100 µM
[25]
  GI50: 6.34 µM
  TGI: > 100 µM
[26]
  GI50: 9.71 µM
  TGI: 81.8 µM
[27]
  GI50: 3.67 µM
  TGI: 9.48 µM
[28]
  GI50: 3.05 µM
  TGI: 11.4 µM
[29]
  GI50: 2.79 µM
  TGI: 9.21 µM
[30]
  GI50: 1.68 µM
  TGI: 6.19 µM
[31]
  GI50: 5.44 µM
  TGI: > 100 µM
[32]
  GI50: 5.3 µM
  TGI: 57.9 µM
[33]
  GI50: 2.19 µM
  TGI: 12.8 µM
[34]
  GI50: 5.52 µM
  TGI: 24.4 µM
[35]
  GI50: 15.1 µM
  TGI: > 100 µM
[36]
  GI50: 3.12 µM
  TGI: 15.5 µM
[37]
  GI50: 4.67 µM
  TGI: > 100 µM
[38]
  GI50: 4.51 µM
  TGI: > 100 µM
[39]
  GI50: 6.29 µM
  TGI: 60.7 µM
[40]
  GI50: 4.23 µM
  TGI: 48.9 µM
[41]
  GI50: 6.03 µM
  TGI: > 100 µM
[42]
  GI50: 6.94 µM
  TGI: 65.6 µM
[43]
  GI50: 3 µM
  TGI: 42.6 µM
[44]
  GI50: 3.83 µM
  TGI: 35.4 µM
[45]
  GI50: 7.87 µM
  TGI: > 100 µM
[46]
  GI50: 3.68 µM
  TGI: 37.2 µM
[47]
  GI50: 3.57 µM
  TGI: > 100 µM
[48]
  GI50: 3.76 µM
  TGI: > 100 µM
[49]
  GI50: 11.6 µM
  TGI: > 100 µM
[50]
  GI50: 2.23 µM
  TGI: > 100 µM
[51]
  GI50: 5.39 µM
  TGI: > 100 µM
[52]
  GI50: 4.62 µM
  TGI: > 100 µM
[53]
  GI50: 1.88 µM
  TGI: 5.36 µM
[54]
  GI50: 8.62 µM
  TGI: 53.6 µM
[55]
  GI50: 11.8 µM
  TGI: > 100 µM
[56]
  GI50: 3.07 µM
  TGI: 14.3 µM
[57]
  GI50: 3.5 µM
  TGI: 13.9 µM
[58]
  GI50: 1.15 µM
  TGI: 4.34 µM

## Cc1ccc(C(=Nc2ccccc2)N=P(c2ccccc2)(c2ccccc2)c2ccccc2)cc1
[1]
  GI50: 2.12 µM
[2]
  GI50: 2.51 µM
  TGI: 6.5 µM
[3]
  GI50: 1.32 µM
  TGI: 3.74 µM
[4]
  GI50: 1.18 µM
  TGI: 4.14 µM
[5]
  GI50: 1.22 µM
[6]
  GI50: 2.14 µM
[7]
  GI50: 1.71 µM
  TGI: 4.29 µM
[8]
  GI50: 1.82 µM
[9]
  GI50: 1.15 µM
[10]
  GI50: 1.26 µM
[11]
  GI50: 1.12 µM
[12]
  GI50: 1.57 µM
  TGI: 9.38 µM
[13]
  GI50: 2.18 µM
  TGI: 8.68 µM
[14]
  TGI: 1.4 µM
[15]
  GI50: 0.621 µM
  TGI: 4.96 µM
[16]
  GI50: 1.63 µM
  TGI: 10 µM
[17]
  GI50: 3.61 µM
[18]
  GI50: 1.15 µM
  TGI: > 36.8 µM
[19]
  GI50: 3.34 µM
  TGI: > 100 µM
[20]
  GI50: 1.22 µM
  TGI: 3.72 µM
[21]
  GI50: 1.72 µM
  TGI: 5.32 µM
[22]
  GI50: 1.07 µM
  TGI: 4.71 µM
[23]
  GI50: 0.986 µM
  TGI: 3.92 µM
[24]
  GI50: 4.22 µM
  TGI: > 100 µM
[25]
  GI50: 2.21 µM
  TGI: 7.75 µM
[26]
  GI50: 1.18 µM
  TGI: 2.86 µM
[27]
  GI50: 1.31 µM
  TGI: 5.44 µM
[28]
  GI50: 0.739 µM
  TGI: 1.93 µM
[29]
  GI50: 1.48 µM
  TGI: 7.84 µM
[30]
  GI50: 2.44 µM
  TGI: 14.8 µM
[31]
  GI50: 1.43 µM
  TGI: 15 µM
[32]
  GI50: 0.235 µM
  TGI: 0.593 µM
[33]
  GI50: 0.695 µM
  TGI: 2.52 µM
[34]
  GI50: 1.81 µM
  TGI: 8.77 µM
[35]
  GI50: 2.98 µM
[36]
  GI50: 1.98 µM
  TGI: 5.22 µM
[37]
  GI50: 0.328 µM
  TGI: 1.29 µM
[38]
  GI50: 1.54 µM
  TGI: 3.96 µM
[39]
  GI50: 3.11 µM
  TGI: 12.5 µM
[40]
  GI50: 0.949 µM
  TGI: 4.28 µM
[41]
  GI50: 1.67 µM
  TGI: 14.9 µM
[42]
  GI50: 2.09 µM
[43]
  GI50: 0.875 µM
  TGI: 7.12 µM
[44]
  GI50: 1.22 µM
  TGI: 4.23 µM
[45]
  GI50: 1.53 µM
  TGI: > 31 µM
[46]
  GI50: 1.79 µM
[47]
  GI50: 1.43 µM
  TGI: 4.85 µM
[48]
  GI50: 1.34 µM
[49]
  GI50: 1.24 µM
[50]
  GI50: 1.44 µM
[51]
  GI50: 1.41 µM
  TGI: 9 µM
[52]
  GI50: 1.74 µM
  TGI: 4.04 µM
[53]
  GI50: 1.44 µM
  TGI: 9.73 µM
[54]
  GI50: 1.32 µM
  TGI: 3.8 µM
[55]
  GI50: 0.288 µM
  TGI: 0.946 µM
[56]
  GI50: 1.19 µM
  TGI: 5.07 µM
[57]
  GI50: 0.833 µM
  TGI: 2.32 µM
[58]
  GI50: 0.955 µM
  TGI: 3.23 µM
